Data from patent US9771369B2, “Compounds and methods for kinase modulation, and indications therefor” (Plexxikon Inc., priority 2014, dated 2017).

target: c-Kit kinase (Homo sapiens (Human), UniProt P10721); assay: c-Kit biochemical assay (AlphaScreen kinase activity)
How it was run: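 AlphaScreen: c-Kit phosphorylates biotin-(E4Y)3 (100 nM) at 10 μM ATP, pH 7.2 HEPES buffer with Mg/Mn, 5% DMSO, 1 h room temperature; streptavidin donor and PY30 acceptor beads detect product. Second format: 100 μM ATP, 30 nM biotin-(E4Y)10, pH 7.5. IC50 from 8-point 1:3 dilution curves.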

Chain of c-Kit kinase (P10721 26-976): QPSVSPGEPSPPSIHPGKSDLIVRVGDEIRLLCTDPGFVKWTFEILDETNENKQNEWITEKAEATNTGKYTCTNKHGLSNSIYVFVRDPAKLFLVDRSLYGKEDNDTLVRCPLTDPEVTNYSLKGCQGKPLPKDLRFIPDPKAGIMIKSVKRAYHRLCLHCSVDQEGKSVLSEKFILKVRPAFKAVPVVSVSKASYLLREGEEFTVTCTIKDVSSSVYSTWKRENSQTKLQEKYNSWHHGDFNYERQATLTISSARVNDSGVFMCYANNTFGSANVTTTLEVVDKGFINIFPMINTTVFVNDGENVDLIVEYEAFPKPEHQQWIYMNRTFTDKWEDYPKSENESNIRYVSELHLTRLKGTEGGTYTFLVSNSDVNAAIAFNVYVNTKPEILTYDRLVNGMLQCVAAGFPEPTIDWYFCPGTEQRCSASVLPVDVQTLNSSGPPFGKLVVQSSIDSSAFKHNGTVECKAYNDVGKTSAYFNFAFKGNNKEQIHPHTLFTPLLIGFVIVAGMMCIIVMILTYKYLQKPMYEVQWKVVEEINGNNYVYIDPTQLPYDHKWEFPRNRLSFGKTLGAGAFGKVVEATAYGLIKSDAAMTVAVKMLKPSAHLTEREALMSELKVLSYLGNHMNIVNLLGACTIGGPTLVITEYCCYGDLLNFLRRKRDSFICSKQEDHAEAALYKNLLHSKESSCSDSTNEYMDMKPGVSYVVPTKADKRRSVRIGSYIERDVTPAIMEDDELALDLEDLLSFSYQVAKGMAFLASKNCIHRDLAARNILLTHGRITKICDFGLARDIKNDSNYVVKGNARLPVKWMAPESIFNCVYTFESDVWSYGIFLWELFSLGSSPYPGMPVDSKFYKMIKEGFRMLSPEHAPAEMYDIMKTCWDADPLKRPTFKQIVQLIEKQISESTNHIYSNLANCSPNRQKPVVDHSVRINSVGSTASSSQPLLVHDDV

| Compound | IC50 [µM] |
| --- | --- |
| CCC1(c2nc(C)c(-c3ccc(OC)cc3)[nH]2)CCN(c2ncnc3[nH]c(-c4ccc(F)cc4)cc23)CC1 [P-3055, 4-[4-ethyl-4-[5-(4-methoxyphenyl)-4-methyl-1H-imidazol-2-yl]-1-piperidyl]-6-(4-fluorophenyl)-7H-pyrrolo[2,3-d]pyrimidine] | 0.0001 to 1 |
| Cc1cc2c(N3CCC(C)(c4nc(C)c(-c5ccc(F)cc5)[nH]4)CC3)ncnc2[nH]1 [P-3064, 4-[4-[5-(4-fluorophenyl)-4-methyl-1H-imidazol-2-yl]-4-methyl-1-piperidyl]-6-methyl-7H-pyrrolo[2,3-d]pyrimidine] | 1 to 10 |
| CCOc1ccc(-c2[nH]c(C3CCN(c4ncnc5[nH]c(-c6ccc(F)cc6)cc45)CC3)nc2C)cc1C [P-3065, 4-[4-[5-(4-ethoxy-3-methyl-phenyl)-4-methyl-1H-imidazol-2-yl]-1-piperidyl]-6-(4-fluorophenyl)-7H-pyrrolo[2,3-d]pyrimidine] | 0.0001 to 1 |
| CC(=O)Nc1cccc(-c2cc3c(N4CCC(c5nc(C)c(-c6ccccc6)[nH]5)CC4)ncnc3[nH]2)c1 [P-3071, N-[3-[4-[4-(4-methyl-5-phenyl-1H-imidazol-2-yl)-1-piperidyl]-7H-pyrrolo[2,3-d]pyrimidin-6-yl]phenyl]acetamide] | 0.0001 to 1 |
| CCOc1ccc(-c2[nH]c(C3(C)CCN(c4ncnc5[nH]c(-c6ccc(C#N)nc6)cc45)CC3)nc2C)cc1 [P-3251, 5-[4-[4-[5-(4-ethoxyphenyl)-4-methyl-1H-imidazol-2-yl]-4-methyl-1-piperidyl]-7H-pyrrolo[2,3-d]pyrimidin-6-yl]pyridine-2-carbonitrile] | 0.0001 to 1 |
| Cc1cc2c(N3CCC(c4nc(C)c(-c5ccccc5)[nH]4)CC3)ncnc2[nH]1 [P-3004, 6-methyl-4-[4-(4-methyl-5-phenyl-1H-imidazol-2-yl)-1-piperidyl]-7H-pyrrolo[2,3-d]pyrimidine] | 10 to 300 |
| COc1cc(-c2cc3c(N4CCC(c5nc(C)c(-c6ccccc6)[nH]5)CC4)ncnc3[nH]2)ccn1 [P-3003, 6-(2-methoxy-4-pyridyl)-4-[4-(4-methyl-5-phenyl-1H-imidazol-2-yl)-1-piperidyl]-7H-pyrrolo[2,3-d]pyrimidine] | 0.0001 to 1 |
| CCOc1cccc(-c2[nH]c(C3CCN(c4ncnc5[nH]c(-c6ccnc(OC)c6)cc45)CC3)nc2C)c1 [P-3034, 4-[4-[5-(3-ethoxyphenyl)-4-methyl-1H-imidazol-2-yl]-1-piperidyl]-6-(2-methoxy-4-pyridyl)-7H-pyrrolo[2,3-d]pyrimidine] | 1 to 10 |
| CCOc1ccc(-c2[nH]c(C3CCN(c4ncnc5[nH]c(-c6ccc(C#N)cc6)cc45)CC3)nc2C)cc1 [P-3027, 4-[4-[4-[5-(4-ethoxyphenyl)-4-methyl-1H-imidazol-2-yl]-1-piperidyl]-7H-pyrrolo[2,3-d]pyrimidin-6-yl]benzonitrile] | 1 to 10 |
| Cc1nc(C2(C)CCN(c3ncnc4[nH]c(-c5ccc(NS(C)(=O)=O)cc5)cc34)CC2)[nH]c1-c1ccc(OC(F)F)cc1 [P-3254, N-[4-[4-[4-[5-[4-(difluoromethoxy)phenyl]-4-methyl-1H-imidazol-2-yl]-4-methyl-1-piperidyl]-7H-pyrrolo[2,3-d]pyrimidin-6-yl]phenyl]methanesulfonamide] | 0.0001 to 1 |
| COc1cccc(-c2[nH]c(C3CCN(c4ncnc5[nH]c(-c6ccc(C#N)cc6)cc45)CC3)nc2C)c1 [P-3021, 4-[4-[4-[5-(3-methoxyphenyl)-4-methyl-1H-imidazol-2-yl]-1-piperidyl]-7H-pyrrolo[2,3-d]pyrimidin-6-yl]benzonitrile] | 0.0001 to 1 |
| COc1cc(-c2cc3c(N4CCC(c5nc(C)c(-c6ccc(OC(F)(F)F)cc6)[nH]5)CC4)ncnc3[nH]2)ccn1 [P-3087, 6-(2-methoxy-4-pyridyl)-4-[4-[4-methyl-5-[4-(trifluoromethoxy)phenyl]-1H-imidazol-2-yl]-1-piperidyl]-7H-pyrrolo[2,3-d]pyrimidine] | 1 to 10 |
| Cc1nc(C2CCN(c3ncnc4[nH]c(-c5ccc(C#N)cc5)cc34)CC2)[nH]c1-c1ccc(F)cc1 [P-3020, 4-[4-[4-[5-(4-fluorophenyl)-4-methyl-1H-imidazol-2-yl]-1-piperidyl]-7H-pyrrolo[2,3-d]pyrimidin-6-yl]benzonitrile] | 1 to 10 |
